This passage reports TGI results from PubChem BioAssay (NCI).

What all share (test): NCI-60 cell line screen, 48 h
In assay [1] the test system is DU-145 prostate.
The subject of assay [2] is SK-MEL-2 melanoma.
The test system of assay [3] is CCRF-CEM leukemia.
The test system of assay [4] is HOP-92 NSCLC.
Assay [5] has as its system OVCAR-3 ovarian.
Assay [6] concerns PC-3 prostate.
For assay [7], the system named is UACC-257 melanoma.
Assay [8] concerns NCI-H460 lung.
For assay [9], the system named is SK-MEL-28 melanoma.
Assay [10] concerns A549 NSCLC.
Assay [11] concerns MDA-MB-231 breast.
The test system of assay [12] is IGROV1 ovarian.
Assay [13] has as its system OVCAR-4 ovarian.
Assay [14] deals with NCI-H226 lung.
Assay [15] deals with HCT-15 colon.
Assay [16] deals with NCI-H522 lung.
In assay [17] the test system is T-47D breast.
For assay [18], the system named is A498 renal.
Assay [19] concerns MCF7 breast.

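Protocol summary: plate cells (96-well), add compound at 5 concentrations, incubate 48 h, interpolate endpoints linearly. TGI: total growth inhibition.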 Where only a bound is given, the exact number is not on record here.

Consider `CN(C)CCCN1c2ccc([N+](=O)[O-])cc2CCc2cccc([N+](=O)[O-])c21`, for which the TGI in [1] was 31.2 µM; in assay [2] it was 33.5 µM; in assay [3] it was 46.4 µM; in [4], 26.8 µM; in assay [5], 28.8 µM; in assay [6], 42.8 µM. The TGI was 27.6 µM in assay [7]; 29.2 µM in [8]; 30.1 µM in assay [9]; 29.5 µM in assay [10]; 26.1 µM in assay [11]; 29.7 µM in assay [12]. The TGI in assay [13] was 13.9 µM; in assay [14], 29.3 µM; in assay [15], 30.5 µM; in assay [16], 32.1 µM; in assay [17], 37.2 µM.
With `COc1ccc2c(c1)CC[C@@H]1[C@@H]2CC[C@]2(C)C(=O)/C(=C/c3ccc(N(C)C)cc3)C[C@@H]12`, the TGI in assay [1] was above 100 µM; in [2], 84.6 µM; in assay [4], 69 µM; in [5], 54.6 µM; in assay [6], above 100 µM; in [8], above 100 µM. Further, the TGI in [10], in assay [11], in [13], in assay [15], in assay [18] and in [17] was above 100 µM each time.
Take `Nn1c(CCCCCCCCc2nnc(COc3ccc(Cl)cc3Cl)n2N)nnc1COc1ccc(Cl)cc1Cl`: the TGI in [1], in assay [2], in assay [4], in assay [6], in assay [7] and in assay [8] was above 100 µM in each case. For the same compound, the TGI was above 100 µM in assay [9]; above 100 µM in [10]; above 100 µM in assay [11]; 66 µM in [12]; above 100 µM in assay [13]; above 100 µM in [14]. Also, the TGI in assay [19] is above 100 µM; in [15] it was above 100 µM; in assay [16], 59.7 µM; in assay [18] it was above 100 µM.
In the case of `COc1ccc(/C=c2/sc3n(c2=O)C(c2ccccc2)C2(O)CCCCC2N=3)cc1` (stereo unspecified), the TGI in assay [2], in assay [3], in [5], in assay [6], in [7] and in [8] was above 12.5 µM in each case. The TGI in [9], in assay [10], in [12], in [13], in assay [14] and in [19] was above 12.5 µM throughout. Besides, the TGI in assay [16] and in [17] was above 12.5 µM throughout.
In the case of `O=C(Nc1ccccc1)OCCN=C1c2ccccc2C(Br)C(Br)c2ccccc21` (stereo unspecified), the TGI is 16 µM in [1]; above 31.6 µM in assay [2]; 5.3 µM in assay [3]; 16.1 µM in [4]; 15.8 µM in [5]; above 31.6 µM in [6]. Also, the TGI in assay [7] stood at 15.6 µM; in assay [8], 19.5 µM; in assay [9] it was 16.1 µM; in [10] it was 25.4 µM; in assay [11] it was 20.6 µM; in assay [12] it was 10.6 µM. In addition, the TGI in assay [13] was 21.9 µM; in [14] it was 19.2 µM; in assay [19], above 31.6 µM; in assay [15], above 24.2 µM; in assay [16], 8.41 µM; in assay [18] it was 18.1 µM.
As to `NC1CC(=O)c2cscc21` (stereo unspecified), the TGI is above 100 µM in assay [1]; above 100 µM in [2]; 38.2 µM in assay [3]; 49.6 µM in assay [4]; 34.8 µM in assay [5]; above 100 µM in assay [6]. The TGI in assay [7] is above 100 µM; in assay [8] it was above 100 µM; in [9], above 100 µM; in assay [10], 41.7 µM; in [11], above 100 µM; in [12], above 100 µM. Also, the TGI is above 100 µM in [13], 88.5 µM in assay [15] and 40.3 µM in assay [17].
For the compound `COc1cc2c(cc1OC)[C@@H]1[C@H](C#N)C(=O)C(C)(C)N1CC2`, the TGI in assay [1], in [3], in [4], in assay [5], in assay [6] and in assay [7] was above 100 µM each time. Besides, the TGI in [8], in assay [9], in [10], in [11], in assay [12] and in [13] was above 100 µM each time. Also, the TGI in assay [14], in [19], in [15], in [16] and in [18] was above 100 µM in each case.
With `Cc1ccc(-c2n[nH]c(Cc3nc(-c4ccc(C)cc4)n[nH]3)n2)cc1`, the TGI in assay [1], in [2], in assay [3], in [4], in assay [5] and in assay [6] was above 100 µM throughout. Also, the TGI in assay [7], in assay [9], in assay [10], in assay [11], in [12] and in assay [13] was above 100 µM each time. The TGI in [19], in assay [15] and in assay [16] was above 100 µM in each case.
Take `CCN(CC)c1ccc2cc(C(N)=O)c(=N)oc2c1`: the TGI is above 100 µM in assay [1]; 54.1 µM in assay [2]; above 100 µM in assay [3]; above 100 µM in [4]; above 100 µM in [5]; 87.6 µM in assay [6]. The TGI in assay [7] was above 100 µM; in [8], above 100 µM; in [9], above 100 µM; in [10], above 100 µM; in assay [11], above 100 µM; in [12], 80.7 µM. Besides, the TGI in assay [13] is 74.1 µM; in assay [14], above 100 µM; in [15], above 100 µM; in [18] it was above 100 µM; in assay [17], 83.9 µM.
